Data published in patent publication US20250019372A1, “CRYSTALLINE FORMS OF A RIPK1 INHIBITOR” (RIGEL PHARMACEUTICALS, INC., priority 2021, published 2025).

Test: Relative thermodynamic stability of the crystalline forms
Type: physicochemical
Conditions: compared to the other identified Forms A, B, and C; temperature range of RT to 50° C.

## CN1C(=O)[C@@H](NC(=O)c2n[nH]c(Cc3ccccc3)n2)COc2ccc(C#CC(C)(C)O)cc21 [Form D, (S)-5-benzyl-N-(7-(3-hydroxy-3-methylbut-1-yn-1-yl)-5-methyl-4-oxo-2,3,4,5-tetrahydrobenzo[b][1,4]oxazepin-3-yl)-1H-1,2,4-triazole-3-carboxamide]
  thermodynamic stability of the crystalline form: most thermodynamically stable crystalline form
